Data: patent US8329913B2, “Carbazole derivative, solvate thereof, or pharmaceutically acceptable salt thereof” (Zeria Pharmaceutical Co., Ltd., priority 2004, dated 2012)

Molecular target: T1, human PPARγ (Homo sapiens, UniProt P37231)
T1 construct: 1.6 kb of fragment of the prepared plasmid pGEMT-hPPARg2 including human PPARγ gene; expressed in transfected cells; host or cells: CV-1 cells, transient transfection with pCI-hPPARg2, pCI-hRXRa and the reporter pGL3-PPRE3-TK
T1 sequence (P37231 1-505): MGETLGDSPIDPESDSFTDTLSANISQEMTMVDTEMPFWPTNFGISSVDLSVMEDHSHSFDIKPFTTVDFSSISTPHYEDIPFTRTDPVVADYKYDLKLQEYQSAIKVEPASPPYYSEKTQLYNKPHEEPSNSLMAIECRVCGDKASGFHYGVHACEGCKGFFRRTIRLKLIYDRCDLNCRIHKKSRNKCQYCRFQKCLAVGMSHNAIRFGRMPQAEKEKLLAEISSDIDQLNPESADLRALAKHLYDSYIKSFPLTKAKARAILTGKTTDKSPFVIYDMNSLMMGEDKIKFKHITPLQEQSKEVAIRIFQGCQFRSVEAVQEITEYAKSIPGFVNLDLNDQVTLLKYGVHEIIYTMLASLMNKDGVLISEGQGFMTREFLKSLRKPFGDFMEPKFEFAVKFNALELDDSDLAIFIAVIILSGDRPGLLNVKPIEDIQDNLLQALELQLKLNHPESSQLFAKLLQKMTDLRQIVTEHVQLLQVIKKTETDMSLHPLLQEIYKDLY
T1 sequence (P19793 1-462 partner): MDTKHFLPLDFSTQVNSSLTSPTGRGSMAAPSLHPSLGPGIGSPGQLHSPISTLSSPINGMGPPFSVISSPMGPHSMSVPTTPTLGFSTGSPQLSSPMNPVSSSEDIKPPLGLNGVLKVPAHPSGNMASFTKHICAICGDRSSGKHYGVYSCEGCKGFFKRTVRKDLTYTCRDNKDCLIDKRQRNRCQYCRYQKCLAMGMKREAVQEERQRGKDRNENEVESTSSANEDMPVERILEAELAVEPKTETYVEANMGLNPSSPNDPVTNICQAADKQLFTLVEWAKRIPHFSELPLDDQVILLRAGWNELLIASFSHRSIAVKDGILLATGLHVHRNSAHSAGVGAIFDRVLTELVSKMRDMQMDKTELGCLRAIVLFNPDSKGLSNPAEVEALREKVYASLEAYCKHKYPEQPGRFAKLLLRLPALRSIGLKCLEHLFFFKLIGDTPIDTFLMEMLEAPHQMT
Experiment: Human PPARγ antagonist assay (luciferase reporter in transfected CV-1 cells)
Assay type: cell-based
Conditions: CV-1 cells expressing human PPARγ and RXRα with reporter plasmid; pioglitazone 1 μM as stimulant; 24 hours; read-out: Human PPARγ antagonist activities, Inhibition IC50
Procedure, shortened: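 CV-1 cells transiently co-transfected with human PPARγ2, RXRα, PPRE3-TK firefly luciferase and renilla plasmids were exposed 24 h at 37 °C to compound (10 nM–3 μM) plus 1 μM pioglitazone. Firefly/renilla ratios were scaled between pioglitazone alone (0%) and no addition (100%), and IC50 was taken at 50% inhibition.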

Row | SMILES | IC50 [µM]
1 | COc1cc(Cn2c3ccccc3c3c(OC(C)(C)C(=O)O)cccc32)ccc1OCc1nc(-c2ccco2)oc1C [Example 7, 2-{9-[4-((2-(furan-2-yl)-5-methyl-oxazole-4-yl)methoxy)-3-methoxy-benzyl]-9H-carbazole-4-yloxy-}2-methyl-propionic acid] | 1.91
2 | COc1cc(Cn2c3ccccc3c3c(OCCC(C)C(=O)[O-])cccc32)ccc1OCc1nc(-c2ccccc2)oc1C.[Na+] (racemic) [Example 37] | 0.354
